Results published in patent US20260159484A1, “AKT3 MODULATORS” (GEORGIAMUNE LLC, priority 2021, published 2026).

What follows are molecules tested against T1, Akt3 (Mus musculus, UniProt Q9WUA6) (assay: Foxp3 induction assay (iTreg induction from CD4 conventional T cells); reported as Akt3 inhibition activity). Details: Foxp3 induction in CD4 Tconvs from C57/B16 mice, anti-CD3/anti-CD28, IL2, TGF-β, 3 days of culture, flow cytometry.
T1 construct: endogenous in cells; host or cells: primary CD4 conventional T cells (CD4+/CD25-) from C57BL/6 mice
T1 sequence (Q9WUA6 whole entry): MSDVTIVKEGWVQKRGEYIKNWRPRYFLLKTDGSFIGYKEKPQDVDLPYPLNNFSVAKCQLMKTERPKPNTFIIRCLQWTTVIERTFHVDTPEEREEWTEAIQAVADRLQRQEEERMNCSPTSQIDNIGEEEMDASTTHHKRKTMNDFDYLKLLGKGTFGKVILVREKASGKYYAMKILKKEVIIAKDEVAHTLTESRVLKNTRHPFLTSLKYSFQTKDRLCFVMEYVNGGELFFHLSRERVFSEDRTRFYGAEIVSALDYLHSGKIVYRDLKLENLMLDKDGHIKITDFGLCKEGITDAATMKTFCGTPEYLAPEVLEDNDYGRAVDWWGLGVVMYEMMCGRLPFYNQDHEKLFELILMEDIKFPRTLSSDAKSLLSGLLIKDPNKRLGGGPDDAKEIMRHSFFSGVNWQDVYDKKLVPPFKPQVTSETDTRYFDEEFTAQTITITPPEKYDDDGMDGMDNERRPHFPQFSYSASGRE
Format: cell-based
Procedure: Sorted or enriched (Miltenyi magnetic separation) CD4 conventional T cells (Tconvs -CD4+/CD25) from C57/B16 mice were used for the induction of iTregs. A 10 μg/mL plate-bound anti-CD3 antibody (50ul per well for 96-well plate), 2.5 μg/mL of soluble anti-CD28 antibody, 100 IU/mL of IL2 and 5 ng/mL of TGF-β in absence or presence of different concentrations of drug (usually titrating from 0.01 uM to 10 uM) were used. As negative control for induction, samples without TGF-β were used.
After 3 days of culture in presence of stimulation, TGF-β and drug, cells were stained with fixable live/dead cell stain (Life Technologies, NY) for gating and exclusion of toxic doses. The mouse Foxp3 buffer kit was used to fix and permeabilize cells according to the manufacturer's instructions (BD Bioscience, San Jose, CA). The anti-CD4 antibody and anti-Foxp3 antibody were used to stain the cells. After staining, cells were acquired using flow cytometer.

Q: For `Cc1cnc2ccccc2c1Nc1ccc(CC(=O)Nc2ccccc2S(N)(=O)=O)cc1` [Compound 1, 2-(4-((3-methylquinolin-4-yl)amino)phenyl)-N-(2-sulfamoylphenyl)acetamide], which IC50 is on record?
A: < 1000 nM

Q: For `CC(=O)c1ccccc1NC(=O)c1ccc(Nc2c(C)cnc3ccccc23)cc1` [Compound 2, N-(2-acetylphenyl)-4-((3-methylquinolin-4-yl)amino)benzamide], which IC50 is on record?
A: < 1000 nM

Q: Which IC50 does the source give for `CC(=O)c1ccccc1NC(=O)Cc1ccc(Nc2c(C)cnc3ccccc23)cc1` [Compound 3, N-(2-acetylphenyl)-2-(4-((3-methylquinolin-4-yl)amino)phenyl)acetamide] here?
A: < 1000 nM

Q: Which IC50 does the source give for `CC(=O)c1cccc(NC(=O)Cc2ccc(Nc3cc(C)nc4ccccc34)cc2)c1` [Compound 5, N-(3-acetylphenyl)-2-(4-((2-methylquinolin-4-yl)amino)phenyl)acetamide] here?
A: < 2000 nM

Q: How did the IC50 turn out when `CC(=O)c1cnccc1NC(=O)Cc1ccc(Nc2cc(C)nc3ccccc23)cc1` [Compound 6, N-(3-acetylpyridin-4-yl)-2-(4-((2-methylquinolin-4-yl)amino)phenyl)acetamide] was run?
A: < 5000 nM
